Converted amounts (≈) assume the structure as drawn. “Also recorded” adds a separate entry of the source. Square brackets hold non-standard residues; d marks the D form. Peptide text beside a SMILES is read from it. NMeF = CN[C@@H](Cc1ccccc1)C(=O)O; PhLac = O=C(O)[C@@H](O)Cc1ccccc1; NMeL = CN[C@@H](CC(C)C)C(=O)O; NMeV = CN[C@H](C(=O)O)C(C)C; Hiv = CC(C)[C@H](O)C(=O)O; NMeA = CN[C@@H](C)C(=O)O
Tests used:
[1] = biological target: Aβ40 (Homo sapiens, UniProt P05067); experiment: Inhibition of Aβ40 fibrillogenesis, thioflavin T fluorescence assay; assay type: biochemical
[2] = Solubility in aqueous media and organic solvents
[3] = biological target: T1, Aβ40 fibrils (Homo sapiens, UniProt P05067)
[4] = tested on: COS cells; experiment: COS cell uptake of fluorescent peptides, fluorescence microscopy and HPLC reisolation; assay type: cell-based
Procedure: Briefly, COS cells, were plated on coverslips, and incubated overnight in the presence of 4 μM to […] of the Anth-A16-20 peptide. The cells on coverslips were then washed extensively with PBS, fixed for one hour with a 3.7% formaldehyde solution and mounted on a slide. The cells were examined by fluorescence microscopy using a DAPI filter.
COS cells, plated on coverslips, were incubated overnight in the presence of 4 μM to 40 μM of the Anth-Aβ16-20 peptide. The cells on coverslips were then washed extensively with PBS, fixed for one hour with a 3.7% formaldehyde solution and mounted on a slide. The cells were examined by fluorescence microscopy using a DAPI filter.
In this experiment, Anth-Aβ16-20m was incubated with COS cells for eight hours. […] The cells were then lysed by the addition of Triton X-100 to 0.1% (v/v), and the lysate was analyzed by HPLC. The HPLC solvent system contained 0.1% trifluoroacetic acid in water (solvent A) and 0.1% trifluoroacetic acid in acetonitrile (solvent B). The peptide was eluted with a gradient of 0%-60% solvent B in 60 minutes. Fractions (1 ml) from the HPLC were collected and analyzed by fluorescence spectroscopy. The excitation and emission wavelengths were 346 nm and 435 nm, respectively.

[5] = Fibril formation by the peptide alone (electron microscopy, Congo Red); assay type: physicochemical
Procedure: After incubation of the inhibition and disassembly samples for the appropriate period of time, an aliquot of each sample was applied to a glow-discharge, 400-mesh, carbon-coated support film and stained with 1% uranyl acetate. Micrographs were recorded using Philips EM300 at magnifications of 17,000, 45,000 and 100,000.
The Congo Red binding assay was performed essentially as described in other publications (Klunk 1989). An aliquot of peptide solution containing 50 μg of peptide was added to 1 ml of a […] solution of Congo Red in 100 mM phosphate buffer, pH 7.4. The solution was incubated for 15 min at room temperature and then the absorbance was measured from 400-600 nm.
For the electron microscopy, aliquots of the inhibition and disassembly samples were applied to a glow-discharge, 400-mesh, carbon-coated support film and stained with 1% uranyl acetate. Micrographs were recorded using a Philips EM300 at magnifications of 17,000, 45,000 and 100,000.

[6] = biological target: T1, Aβ40 fibrils; experiment: Electron microscopy of Aβ40 fibril inhibition and disassembly samples; assay type: biochemical; conditions: Aβ40 incubated with inhibitor peptide
[7] = biological target: chymotrypsin (Bos taurus, UniProt P00766); experiment: Chymotrypsin digestion (protease resistance), RP-HPLC; assay type: in vitro ADME; conditions: 24 h at 37° C., 0.1 mg/ml chymotrypsin, pH 8.4
Procedure: Peptides were incubated for 24 h at 37 C with […] chymotrypsin. The percentage of undigested peptide was determined by RC-HPLC as described in the Materials and Methods. […] The arrow marks the position of the intact.
The peptides were dissolved in 0.5% ammonium bicarbonate at a concentration of 1.0 mg/ml. The pH of the solution was 8.4. Chymotrypsin (Worthington Biochemical Corporation) was added to the peptide solutions so that the final concentration was 0.1 mg/ml. Samples were incubated at 37° C. After twenty-four hrs, the samples were frozen and lyophilized. The samples were analyzed by reverse-phase HPLC using an analytical C 18 column (Rainin Microsorb) and eluted, using a 60 min gradient from 10-70% acetonitrile, containing 0.1% (v/v) TFA. The loss of intact peptide and appearance of fragments were quantitated by integration of the appropriate peaks. Results were expressed as a percent digestion of the peptides. In addition, identities of the peaks were confirmed by electrospray mass spectrometry.
The peptides were dissolved in 0.5% ammonium bicarbonate at a concentration of 1.0 mg/ml. […] After twenty-four hours, the samples were lyophilized and then analyzed by reverse-phase HPLC (Rainin-Microsorb C18 column) and a water-acetonitrile (0.1% (v/v) TFA) gradient (10-70% acetonitrile over one h).

[8] = biological target: Aβ1-40 fibrils (Homo sapiens, UniProt P05067); experiment: Congo Red binding assay of Aβ1-40 fibril inhibition and disassembly; assay type: biochemical
Procedure: Thioflavin T fluorescence is well known as a sensitive assay for the formation of amyloid fibrils. […] The Congo Red binding assay was performed essentially as described in other publications (Klunk 1989). An aliquot of peptide solution containing 50 μg of peptide was added to 1 ml of a […] solution of Congo Red in 100 mM phosphate buffer, pH 7.4. The solution was incubated for 15 min at room temperature and then the absorbance was measured from 400-600 nm.

Chain of Aβ40 (P05067 672-711): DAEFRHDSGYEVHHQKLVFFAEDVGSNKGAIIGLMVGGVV
T1 sequence (P05067 672-711): as above
Chain of Aβ1-40 fibrils (P05067 672-711): as above

## CC(C)C[C@H](NC(=O)[C@@H](N)CCCCN)C(=O)N(C)[C@H](C(=O)N(C)[C@@H](Cc1ccccc1)C(=O)N(C)[C@@H](Cc1ccccc1)C(=O)N(C)[C@@H](C)C(=O)N[C@@H](CCC(=O)O)C(N)=O)C(C)C [Aβ16-22m(4), NH2-KL(me-V)(me-F)(me-F)(me-A)-E-CONH2] (H-KL[NMeV][NMeF][NMeF][NMeA]E-NH2)
[1]
  Inhibition of Fibrillogenesis ICmax: 100
  Inhibition of Fibrilogenesis ICmax: 100%
[2]
  solubility in aqueous media (in words): highly soluble in water

## CC(=O)N[C@@H](CCCCN)C(=O)N[C@@H](CC(C)C)C(=O)N(C)[C@H](C(=O)N[C@@H](Cc1ccccc1)C(=O)N(C)[C@@H](Cc1ccccc1)C(N)=O)C(C)C [Aβ16-20m2]
[2]
  solubility in aqueous media (in words): highly soluble in aqueous media

## CNc1ccccc1C(=O)N[C@@H](CCCCN)C(=O)N[C@@H](CC(C)C)C(=O)N[C@H](C(=O)N[C@@H](Cc1ccccc1)C(=O)N[C@@H](Cc1ccccc1)C(N)=O)C(C)C [Anth-Aβ16-20]
[3]
  Fibril Disassembly ICmax: 100%
[4]; peptide concentration 20 μM
  fluorescence of COS cells: Strong fluorescence
[4]; peptide levels below 4 μM
  fluorescence of COS cells: Very weak fluorescence
[1]
  Inhibition of Fibrilogenesis ICmax: 100%

## CC(C)C[C@@H](C(=O)N[C@H](C(=O)N(C)[C@@H](Cc1ccccc1)C(=O)N[C@@H](Cc1ccccc1)C(=O)N(C)[C@@H](C)C(=O)N[C@@H](CCC(=O)O)C(N)=O)C(C)C)N(C)C(=O)[C@@H](N)CCCCN [Aβ16-22m, NH2-K(me-L)V(me-F)F(me-A)-E-CONH2] (H-K[NMeL]V[NMeF]F[NMeA]E-NH2)
[5]
  fibril formation by the peptide alone: no fibrillar or aggregated material
[6]
  fibrillar material by electron microscopy, inhibition samples: complete lack of fibrils
[7]
  chymotrypsin digestion: complete resistance; also recorded: highly resistant
[1]
  Inhibition of Fibrillogenesis ICmax: 100
  Inhibition of Fibrilogenesis ICmax: 100%
  effect on Aβ40 fibril formation (in words): prevented fibril formation of Aβ40 in a dose dependent manner
  molar excess of inhibitor giving complete elimination of thioflavin fluorescence (complete inhibition): > 30
[2]
  solubility in aqueous media (in words): highly soluble in aqueous solutions; also recorded: highly soluble in aqueous media
[2]; physiological pH and ionic strength
  solubility relative to unmethylated congener: 20-40 times

## CC(C)C[C@H](NC(=O)[C@@H](N)CCCCN)C(=O)N[C@H](C(=O)N[C@@H](Cc1ccccc1)C(=O)N[C@@H](Cc1ccccc1)C(=O)N[C@@H](C)C(=O)N[C@@H](CCC(=O)O)C(N)=O)C(C)C [Aβ16-22, NH2-KLVFFAE-CONH2] (H-KLVFFAE-NH2)
[7]
  chymotrypsin digestion: cleaved by chymotrypsin
[1]
  Inhibition of Fibrillogenesis ICmax: 23.0
  Inhibition of Fibrilogenesis ICmax: 23.0%
  effect on Aβ40 fibril formation (in words): relatively modest inhibitory effect
  inhibition of fibrillogenesis: 10-20%

## CNc1ccccc1C(=O)N[C@@H](CCCCN)C(=O)N(C)[C@@H](CC(C)C)C(=O)N[C@H](C(=O)N(C)[C@@H](Cc1ccccc1)C(=O)N[C@@H](Cc1ccccc1)C(N)=O)C(C)C [Anth-Aβ16-20m, Anth-NH—K(me-L)V(me-F)F—CONH2]
[4]; overnight incubation
  integrity of peptide internalized by COS cells and reisolated (HPLC): not modified or degraded
[4]; peptide levels below 4 μM
  fluorescence of COS cells: Very weak fluorescence
[4]; twelve hours incubation
  intracellular fluorescence / permeation of COS cell membranes: permeates cell membranes
[1]
  Inhibition ICmax: 100

## CC(=O)N[C@@H](CCCCN)C(=O)N[C@@H](CC(C)C)C(=O)N[C@H](C(=O)N[C@@H](Cc1ccccc1)C(=O)N[C@@H](Cc1ccccc1)C(N)=O)C(C)C [Ac-Aβ16-20, Ac-NH-KLVFF-CONH2, reference compound]
[3]; thioflavin fluorescence
  disassembly of pre-formed Aβ40 fibrils (in words): disassembled pre-formed
[1]
  Inhibition of Fibrillogenesis ICmax: 100
  Inhibition of Fibrilogenesis ICmax: 100%

## CC(C)[C@H](NC(=O)[C@H](C(C)C)N(C)C(=O)[C@H](C)NC(=O)[C@H](C)NC(=O)[C@H](C)NC(=O)[C@H](C)N(C)C(=O)[C@H](C)NC(=O)CN)C(N)=O [PrPm, NH2-GA(me-A)AAA(me-V)V-CONH2] (H-GA[NMeA]AAA[NMeV]V-NH2)
[1]
  Inhibition of Fibrillogenesis ICmax: 8.6
  Inhibition of Fibrilogenesis ICmax: 8.6%
  effect on Aβ40 fibril formation (in words): no effect

## CC(C)C[C@@H](C(=O)N[C@H](C(=O)N(C)[C@@H](Cc1ccccc1)C(=O)N[C@@H](Cc1ccccc1)C(=O)N(C)[C@@H](C)C(=O)N[C@@H](CCCCN)C(N)=O)C(C)C)N(C)C(=O)[C@@H](N)CCC(=O)O [Aβ16-22mR, NH2-E(me-L)V(me-F)F(me-A)-K-CONH2] (H-E[NMeL]V[NMeF]F[NMeA]K-NH2)
[1]
  Inhibition of Fibrillogenesis ICmax: 100
  Inhibition of Fibrilogenesis ICmax: 100%
  effect on Aβ40 fibril formation (in words): prevented fibril formation of Aβ40 in a dose dependent manner
[2]
  solubility in aqueous media (in words): highly soluble in aqueous solutions

## CC(=O)N[C@@H](CCCCN)C(=O)N[C@@H](CC(C)C)C(=O)O[C@H](C(=O)N[C@@H](Cc1ccccc1)C(=O)O[C@@H](Cc1ccccc1)C(N)=O)C(C)C [Aβ16-20e, Ac—NH—KLesterVFesterF—CONH2] (Ac-KL[Hiv]F[PhLac]-NH2)
[5]
  fibril formation by the peptide alone: does not cause a change in the absorbance spectrum of Congo Red
[6]
  fibrillar material by electron microscopy, inhibition samples: Fibrillar material was not observed
[8]; disassembly
  Congo Red spectrum, pre-formed Aβ1-40 fibrils to which inhibitor was added: identical to the control spectrum of Congo Red alone
[8]; inhibition
  Congo Red spectrum, Aβ1-40 incubated with inhibitor: identical to the control spectrum of Congo Red alone
[3]
  Disassembly ICmax: 100
[1]
  Inhibition ICmax: 100

## CC(=O)N[C@@H](CCCCN)C(=O)N[C@@H](CC(C)C)C(=O)N[C@H](C(=O)N[C@@H](Cc1ccccc1)C(=O)N[C@@H](Cc1ccccc1)C(N)=O)C(C)C [Aβ16-20, reference compound]
[5]
  fibril formation by the peptide alone: aggregates to form amyloid fibrils; also recorded: bind Congo Red
[1]
  Inhibition ICmax: 89
[2]
  solubility: ~1000 µM (≈ 694 µg/mL)

Reference: patent US20030130484A1, “Inhibitors and disassemblers of fibrillogenesis” (priority 2001, published 2003)
